tested on: primary human T cells; assay: Genome-wide SLICE pooled CRISPR screen: CFSE-sorted proliferation after TCR stimulation; type: cell-based; settings: log2 fold-change of sgRNA, dividing over non-dividing cells; positive hits from GW screen
From the text: To take full advantage of this platform, we scaled-up from the targeted pilot screen to genome-wide (GW) scale (Doench et al., 2016), transducing a library of 77,441 sgRNAs (19,114 genes) into T cells from two healthy donors. After confirming successful transduction of these primary human T cells (FIG. 8,A-B), the cells were re-stimulated and then FACS sorted into non-proliferating and highly-proliferating populations based on CFSE levels (FIG. 8C and Experimental Procedures). MAGeCK software (Li et al., 2014) was used to systematically identify genes that are positively or negatively selected in the proliferating population of T cells. Top positive and negative regulators from the pilot screen were confirmed in both biological replicates of the GW screen along with numerous other hits (FIG. 2A, B). To hone the list of top candidates, we performed an independent secondary screen in cells from two additional human blood donors. The results were well correlated between the primary and secondary screens (FIG. 2C). Furthermore, integrated analysis of the two independent screens performed on a total of four human blood donors provided improved power for target discovery, particularly for negative regulators of T cell proliferation (FIG. 8D). To confirm that hits are in fact dependent on TCR stimulation, we performed GW screens with increasing levels of TCR stimulation. […] The observed dose-response confirmed that the majority of the screen hits are dependent on the TCR stimulus and serve to tune resulting proliferative responses. Taken together these screens identified dozens of genetic perturbations that positively and negatively modulate T cell proliferation.
24 hours post stimulation, lentivirus was added directly to cultured T cells at a 1:300 v/v ratio and gently mixed by tilting. Following 24 hours, cells were collected, pelleted, and resuspended in Lonza electroporation buffer P3 (Lonza, Cat #V4XP-3032) at 20e6 cells/100 μl. Next, Cas9 protein (MacroLab, Berkeley, 40 μM stock) was added to cell suspension at 1:10 v/v ratio. Cells were electroporated at 20e6 cells per cuvette using the pulse code EH115 (Lonza, cat #VVPA-1002). The total number of cells for electroporation was scaled as required. Immediately after electroporation, 1 mL of pre-warmed media was added to each cuvette and cuvettes were placed at 37 degrees for 20 minutes. Cells were then transferred to culture vessels in X-Vivo media containing 50 U/ml IL-2 at 1e6 cells/ml in appropriate tissue culture vessels. Cells were expanded every two days, adding fresh media with IL-2 at 50 U/ml and maintaining the cell density at 1e6 cells/ml.
Cultured cells were collected, spun, washed with PBS, and then resuspended at 1-10 million cells/ml in PBS. CFSE (Biolegend, Cat #423801) was prepared per the manufacturer's protocol to make a 5 mM stock solution in DMSO. This stock solution was diluted 1:1000 in PBS for a 5 μM working solution, and then added in a 1:1 v/v ratio to cell suspension. After mixing, cells were incubated for 5 minutes in the dark at room temperature. The stain was then quenched with a volume of media that was at least 5× the stain volume (e.g. 2 ml+10 ml), and incubated for one minute at room temperature in the dark. Cells were then spun down and resuspended in media prior to restimulation.
PBMCs from multiple human healthy human donors were isolated from TRIMA residuals (see methods). TRIMA residuals were purchased from Blood Centers of the Pacific. After CD8 T cells isolation as above (Day 0), cells were rested in X-Vivo media overnight and then stimulated with plate-bound anti-human CD3/CD28 and IL-2 at 50 U/mL the following day (Day 1). 24 hours after stimulation (Day 2), cells were transduced with concentrated lentivirus encoding the pooled sgRNA library (see methods). […] after transduction (Day 3), cells were electroporated with CAS9 protein (methods). […]

Sequence | LFC (~effect magnitude)
AAGCGTCAAAAGTCTGCCAG (chemistry not given here) [SEQ ID NO: 9, sgRNA targeting CD5] | 0.5512
ACGGACATGAAGCAATATCA (listed as DNA, chemistry not fully specified) [SEQ ID NO: 34, sgRNA targeting TMEM222] | 1.0461
AGAGCATTATGGGCAGACAG (listed as DNA, chemistry not fully specified) [SEQ ID NO: 22, sgRNA targeting GNA13] | 0.3825
AGATATCACACATTACAGTG (listed as DNA, chemistry not fully specified) [SEQ ID NO: 25, sgRNA targeting RASA2] | 0.861
AGGATCGACTTGTGGAACAA (listed as DNA, chemistry not fully specified) [SEQ ID NO: 27, sgRNA targeting RASA2] | 0.4134
AGGCTCCAGGAATGTCCGCG (listed as DNA, chemistry not fully specified) [SEQ ID NO: 20, sgRNA targeting DGKZ] | 0.4227
AGGTTCCAGGTCCGATCCAG (listed as DNA, chemistry not fully specified) [SEQ ID NO: 10, sgRNA targeting CD8A] | 0.8084
AGTTCTACTACAGACCCCCG (chemistry not given here) [SEQ ID NO: 12, sgRNA targeting CDKN1B] | 0.8623
CAAGTACCGACGCGCCAGCG (listed as DNA, chemistry not fully specified) [SEQ ID NO: 23, sgRNA targeting MEF2D] | 0.7255
CAGCACTAGCAGTGGCACGG (chemistry not given here) [SEQ ID NO: 15, sgRNA targeting DGKA] | 0.722
CATCATCCCTCACGGACCCG (listed as DNA, chemistry not fully specified) [SEQ ID NO: 24, sgRNA targeting MEF2D] | 0.46
CCACTTGTTAACAGAGACCG (listed as DNA, chemistry not fully specified) [SEQ ID NO: 38, sgRNA targeting TNFAIP3] | 0.633
CCAGTACAAACCCCAGAACG (listed as DNA, chemistry not fully specified) [SEQ ID NO: 40, sgRNA targeting UBASH3A] | 0.6566
CCCCGTGCAGCGAGTCAGAG (listed as DNA, chemistry not fully specified) [SEQ ID NO: 18, sgRNA targeting DGKZ] | 0.4938
CCGCTTTCCAGTGACCGACG (listed as DNA, chemistry not fully specified) [SEQ ID NO: 21, sgRNA targeting FIBP] | 0.5586
CCTGTACCCGAATAACCATG (listed as DNA, chemistry not fully specified) [SEQ ID NO: 4, sgRNA targeting ARIH2] | 0.3813
CGAAAAAGCAGTTCCGCTGG (listed as DNA, chemistry not fully specified) [SEQ ID NO: 30, sgRNA targeting SOCS1] | 0.6088
CGGCGTGCGAACGGAATGTG (listed as DNA, chemistry not fully specified) [SEQ ID NO: 31, sgRNA targeting SOCS1] | 0.7842
CGGCTCAGCTGGTATGACCC (chemistry not given here) [SEQ ID NO: 8, sgRNA targeting CD5] | 1.4145

Sequence | LFC (~effect magnitude)
CGTGCTGGTGGTTCGCCACG (listed as DNA, chemistry not fully specified) [SEQ ID NO: 39, sgRNA targeting UBASH3A] | 1.0191
CTCCCAAACTGACCTCTAGG (listed as DNA, chemistry not fully specified) [SEQ ID NO: 16, sgRNA targeting DGKA] | 0.7081
CTCTCCTCAGTACCACAGCA (listed as DNA, chemistry not fully specified) [SEQ ID NO: 19, sgRNA targeting DGKZ] | 0.6587
CTTGGCGTCCGTGAAGATGG (listed as DNA, chemistry not fully specified) [SEQ ID NO: 33, sgRNA targeting TCEB2] | 0.6135
GAACGCGCTGAGAGTCCGTG (listed as DNA, chemistry not fully specified) [SEQ ID NO: 3, sgRNA targeting AGO1] | 0.8318
GAATAAGATGTTCTACGCCG (listed as DNA, chemistry not fully specified) [SEQ ID NO: 17, sgRNA targeting DGKZ] | 0.6282
GACTCACTGAGACAAAGTAG (listed as DNA, chemistry not fully specified) [SEQ ID NO: 36, sgRNA targeting TMEM222] | 0.8727
GAGAACCTCGGAACATACGG (listed as DNA, chemistry not fully specified) [SEQ ID NO: 28, sgRNA targeting SMARCB1] | 0.6271
GAGCAGCGGCTGTACAAGGT (listed as DNA, chemistry not fully specified) [SEQ ID NO: 32, sgRNA targeting TCEB2] | 1.0955
GCAGGAAGACCGGCACGAAG (listed as DNA, chemistry not fully specified) [SEQ ID NO: 11, sgRNA targeting CD8A] | 0.6365
GGGCAAGTACGAGTGGCAAG (chemistry not given here) [SEQ ID NO: 13, sgRNA targeting CDKN1B] | 0.9886
GGGCCCCCAGTAGAATCCGC (listed as DNA, chemistry not fully specified) [SEQ ID NO: 29, sgRNA targeting SOCS1] | 1.2551
TATGCCATGAGTGCTCAGAG (listed as DNA, chemistry not fully specified) [SEQ ID NO: 37, sgRNA targeting TNFAIP3] | 0.651
TGAGGAGTACAAGCACCGCA (listed as DNA, chemistry not fully specified) [SEQ ID NO: 35, sgRNA targeting TMEM222] | 1.3341
TGCACAGAACTATCGTACCA (listed as DNA, chemistry not fully specified) [SEQ ID NO: 5, sgRNA targeting CBLB] | 1.9597
TGGACCACGAAGAGTTAACC (chemistry not given here) [SEQ ID NO: 14, sgRNA targeting CDKN1B] | 0.8112
TGTGGGATGTCGACTCCTAG (chemistry not given here) [SEQ ID NO: 7, sgRNA targeting CBLB] | 0.7876
TTAGCATCAAGGCATGCCAT (listed as DNA, chemistry not fully specified) [SEQ ID NO: 26, sgRNA targeting RASA2] | 0.7258
TTCCGCAAAATAGAGCCCCA (listed as DNA, chemistry not fully specified) [SEQ ID NO: 6, sgRNA targeting CBLB] | 1.5917
